Here are results for 1 compound from patent US11773071B2, “Benzothiazepine compounds and their use as bile acid modulators” (Albireo AB, priority 2019, dated 2023).

In this data set the test system is Caco-2 cells. Briefly: Bidirectional permeability assay (Caco-2 cells). The class given is in vitro ADME. Particulars: absorptive direction (A2B); 10 μM in FaSSIF buffer; 120 minutes. The method, then:
Bidirectional Permeability Assay (Caco-2 Cells)
Caco-2 cells (Evotec) were seeded at a density of 70,000 cells/well in Millicell® 24-well cell culture insert plates and maintained in an incubator (37° C., 5% CO2, 95% RH) for 21 days with media change on alternate days.
Stock solutions (10 mM) of the test compounds, atenolol (low permeability marker), propranolol (high permeability marker) and digoxin (substrate for P-gp transport pathway) were prepared in dimethylsulfoxide (DMSO). An intermediate stock solution (1 mM) was prepared by diluting 10 μL of 10 mM master stock solution with 90 μL of neat DMSO. A working stock solution (10 μM) was prepared by diluting 50 μL of 1 mM with 4950 μL of FaSSIF buffer. Post addition of compounds to the FaSSIF, samples were subjected to sonication for 2 hours, and centrifuged at 4000 RPM for 30 minutes at 37° C. The 4 mL of resultant supernatant was directly used in the assay. The final DMSO concentration in the transport experiments was 1%.
On the day of assay, Caco-2 monolayers were washed twice with transport buffer (HBSS, pH 7.4) and pre-incubated for 30 min (37° C., 5% CO2, 95% RH) in an incubator. The electrical resistance of the monolayers was measured with a Millicell®—ERS system. Monolayers with trans-epithelial electrical resistance (TEER) values greater than 350 ohm·cm^2 were selected for the assay.
The assay was conducted in absorptive direction (A2B) and secretory (B2A) directions. Transport experiments were initiated by addition of transport assay buffer (FaSSIF buffer prepared in HBSS) consisting of compounds to the donor compartment (apical chamber A-B; basolateral chamber B-A) in duplicate (n=2) wells. Drug free HBSS buffer (pH 7.4) containing 1% bovine serum albumin (BSA) was introduced to the receiver (A-B-basolateral; B-A-Apical) compartments. The volumes of apical and basolateral compartments were 0.4 and 0.8 mL, respectively. After adding dosing solution, plates were incubated in an incubator for 120 minutes at 37° C. After 120 minutes, donor and receiver samples were collected and matrix matched (1:1, 30 μL study sample+30 μL blank buffer) with the opposite buffer. Dosing samples matrix matched (1:1, 30 μL study sample+30 μL blank buffer) with the opposite buffer. Samples were processed by adding acetonitrile containing internal standard (60 μL study sample+200 μL acetonitrile containing internal standard—Tolbutamide, 500 ng/mL). Samples were vortexed and centrifuged at 4000 rpm for 10 minutes. The obtained supernatant (100 μL) was diluted with 100 μL of water and transferred to fresh 96 well plates. The concentration of compounds in the samples was analyzed by liquid chromatography tandem mass spectrometry (LC-MS/MS) method using discovery grade bio-analytical method, as applicable.
The mean apparent permeability (Papp,×10^−6 cm/sec) of the test compounds, atenolol, propranolol and digoxin were calculated as follows:
[formula] where dq/dt=rate of transport (rate of transport of compound in the receiver compartment), C0=initial concentration in the donor compartment, A=surface area of the effective filter membrane.

`CCCCC1(CCCC)CN(c2ccccc2)c2cc(SC)c(OCC(O)C(=O)O)cc2S(=O)(=O)C1` (single isomer, unassigned) [Example 11, 3-((3,3-dibutyl-7-(methylthio)-1,1-dioxido-5-phenyl-2,3,4,5-tetrahydro-1,5-benzothiazepin-8-yl)oxy)-2-hydroxypropanoic acid]: the “Permeability (Caco-2) Papp A2B” value came to 1.5 ×10⁻⁶ cm/s.
